Assay results as given in publication PMC9736855, “Discovery of 3-Amino-1H-pyrazole-Based Kinase Inhibitors to Illuminate the Understudied PCTAIRE Family” (International Journal of Molecular Sciences, 2022).
Where “and” joins values, the source holds several entries; their conditions need not be identical. Identical values can stand only once. Like-named read-outs stand apart in the source and are kept apart here.

Experiments:
CAMK2B = biological target: T1, CAMK2B (Homo sapiens, UniProt Q13554); assay: DSF; type: binding
T1 construct: purchased in-house DSF panel (SGC Frankfurt)
T1 sequence (Q13554 11-303): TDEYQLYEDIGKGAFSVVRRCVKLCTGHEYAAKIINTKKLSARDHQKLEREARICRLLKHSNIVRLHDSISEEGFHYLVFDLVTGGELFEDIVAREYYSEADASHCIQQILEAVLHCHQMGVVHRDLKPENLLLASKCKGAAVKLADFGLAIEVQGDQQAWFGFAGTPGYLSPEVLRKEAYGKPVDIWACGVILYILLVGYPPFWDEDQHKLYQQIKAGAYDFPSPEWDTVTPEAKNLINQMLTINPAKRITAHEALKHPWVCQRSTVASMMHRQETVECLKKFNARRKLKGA
Experimental: (§2) Recombinant protein kinase domains with a concentration of 2 μM were mixed with a 10 μM compound solution in DMSO, 20 mM HEPES, pH 7.5, and 500 mM NaCl. SYPRO Orange (5000×, Invitrogen) was added as a fluorescence probe (1 µl per mL). Subsequently, temperature-dependent protein unfolding profiles were measured, using the QuantStudio™ 5 realtime PCR machine (Thermo Fisher, Waltham, MA, USA). […] The temperature was raised with a step rate of 3 °C per minute. Data points were analyzed with the internal software (Thermal Shift SoftwareTM Version 1.4, Thermo Fisher) using the Boltzmann equation to determine the inflection point of the transition curve [56]. Differences in melting temperature are given as ΔTm values in °C. Measurements were performed in duplicates.

CSNK1D = biological target: T2, CSNK1D (Homo sapiens, UniProt P48730); assay: DSF; type: binding;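 also: compound tested at 10 µM with 2 µM protein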
T2 construct: purchased in-house DSF panel (SGC Frankfurt)
T2 sequence (P48730 1-294): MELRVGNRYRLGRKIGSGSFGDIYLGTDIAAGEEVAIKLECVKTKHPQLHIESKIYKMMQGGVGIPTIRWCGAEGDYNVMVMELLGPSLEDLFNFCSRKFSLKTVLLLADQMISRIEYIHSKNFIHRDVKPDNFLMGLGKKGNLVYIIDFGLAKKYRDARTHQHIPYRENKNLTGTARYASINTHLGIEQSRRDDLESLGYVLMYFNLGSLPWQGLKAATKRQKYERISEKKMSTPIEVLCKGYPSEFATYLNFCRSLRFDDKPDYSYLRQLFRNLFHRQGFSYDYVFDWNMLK
Experimental: as §2

CDK16/Cyclin Y = biological target: T3, CDK16/Cyclin Y (Homo sapiens, UniProt Q00536); assay: NanoBRET; type: cell-based
T3 construct: Full-length kinases were obtained as plasmids cloned in frame with a terminal NanoLuc-fusion; CS1810C178 (CCNY); host or cells: HEK293T
T3 sequence (Q00536 whole entry, the tested form may be a part): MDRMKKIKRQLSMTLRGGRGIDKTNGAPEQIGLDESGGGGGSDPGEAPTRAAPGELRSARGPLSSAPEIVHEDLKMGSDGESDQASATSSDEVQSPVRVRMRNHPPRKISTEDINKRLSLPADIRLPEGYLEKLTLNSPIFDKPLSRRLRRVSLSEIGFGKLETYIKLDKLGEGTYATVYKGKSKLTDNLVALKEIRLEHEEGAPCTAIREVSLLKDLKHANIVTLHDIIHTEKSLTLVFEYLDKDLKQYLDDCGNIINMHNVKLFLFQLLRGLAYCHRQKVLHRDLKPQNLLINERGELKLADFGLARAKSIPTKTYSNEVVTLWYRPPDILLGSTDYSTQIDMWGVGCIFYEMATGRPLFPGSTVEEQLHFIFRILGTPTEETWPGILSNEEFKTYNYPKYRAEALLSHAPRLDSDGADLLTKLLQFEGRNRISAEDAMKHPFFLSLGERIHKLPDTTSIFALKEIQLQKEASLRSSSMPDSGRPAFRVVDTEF
T3 sequence (Q8ND76 2-341 partner limits assumed): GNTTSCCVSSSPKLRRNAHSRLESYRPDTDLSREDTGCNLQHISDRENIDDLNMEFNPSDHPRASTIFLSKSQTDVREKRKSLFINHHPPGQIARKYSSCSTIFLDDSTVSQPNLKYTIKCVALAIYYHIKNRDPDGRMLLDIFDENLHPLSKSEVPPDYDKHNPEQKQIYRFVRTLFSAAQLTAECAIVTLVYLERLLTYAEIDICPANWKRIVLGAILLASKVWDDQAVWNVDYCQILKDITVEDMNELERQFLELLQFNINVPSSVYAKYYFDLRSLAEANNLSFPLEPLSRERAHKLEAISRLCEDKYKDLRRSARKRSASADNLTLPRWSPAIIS
Procedure, shortened: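 HEK293T cells transiently expressing full-length NanoLuc-fused kinase for 20 h, treated with serially diluted inhibitor plus tracer at its KD,app. Equilibrated 2 h at 37 °C/5% CO2 before reading BRET (450/610 nm). EC50 from tracer displacement by normalized 3-parameter fit.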

GSK3B = GSK3B (Homo sapiens, UniProt P49841); assay: DSF; type: binding; parameters: purchased in-house DSF panel (SGC Frankfurt); conditions: 10 μM compound
Chain of GSK3B (P49841 35-386): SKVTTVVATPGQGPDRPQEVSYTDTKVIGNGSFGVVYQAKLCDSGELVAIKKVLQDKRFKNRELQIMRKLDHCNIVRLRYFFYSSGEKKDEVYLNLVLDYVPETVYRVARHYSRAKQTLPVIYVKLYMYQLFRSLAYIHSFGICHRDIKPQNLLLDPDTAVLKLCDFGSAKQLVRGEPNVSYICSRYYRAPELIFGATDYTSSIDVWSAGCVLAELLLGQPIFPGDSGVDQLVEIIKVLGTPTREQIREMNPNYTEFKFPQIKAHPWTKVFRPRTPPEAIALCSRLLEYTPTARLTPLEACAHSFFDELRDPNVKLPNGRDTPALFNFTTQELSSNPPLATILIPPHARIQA
Procedure, shortened: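 Differential scanning fluorimetry follows unfolding of the protein through fluorescence of a dye that depends on folding state. The value is ΔTm, the melting-temperature shift between compound-free and compound-bound protein. Duplicate measurements.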

MARK4 = biological target: T4, MARK4 (Homo sapiens, UniProt Q96L34); assay: DSF; type: binding
T4 construct: purchased in-house DSF panel (SGC Frankfurt)
T4 sequence (Q96L34 59-310): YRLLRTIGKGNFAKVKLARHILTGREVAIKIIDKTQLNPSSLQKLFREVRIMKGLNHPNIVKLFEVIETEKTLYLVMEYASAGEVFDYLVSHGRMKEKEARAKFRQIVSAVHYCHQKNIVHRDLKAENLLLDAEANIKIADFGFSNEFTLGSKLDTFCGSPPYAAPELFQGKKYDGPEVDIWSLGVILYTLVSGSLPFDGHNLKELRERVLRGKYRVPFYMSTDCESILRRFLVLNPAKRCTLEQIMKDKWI
Experimental: (§1) Measurements were performed in duplicates.

STK4 = biological target: T5, STK4 (Homo sapiens, UniProt Q13043); assay: DSF; type: binding
T5 construct: purchased in-house DSF panel (SGC Frankfurt)
T5 sequence (Q13043 30-281): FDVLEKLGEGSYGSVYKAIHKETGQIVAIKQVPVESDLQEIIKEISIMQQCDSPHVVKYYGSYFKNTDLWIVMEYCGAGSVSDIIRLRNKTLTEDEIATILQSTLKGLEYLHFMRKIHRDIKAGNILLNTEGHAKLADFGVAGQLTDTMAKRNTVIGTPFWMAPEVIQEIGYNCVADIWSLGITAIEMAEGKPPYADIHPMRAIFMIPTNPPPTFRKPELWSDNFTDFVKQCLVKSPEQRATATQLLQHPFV
Experimental: as §1

MAP2K7 = biological target: T6, MAP2K7 (Homo sapiens, UniProt O14733); assay: DSF; type: binding
T6 construct: purchased in-house DSF panel (SGC Frankfurt)
T6 sequence (O14733 120-380): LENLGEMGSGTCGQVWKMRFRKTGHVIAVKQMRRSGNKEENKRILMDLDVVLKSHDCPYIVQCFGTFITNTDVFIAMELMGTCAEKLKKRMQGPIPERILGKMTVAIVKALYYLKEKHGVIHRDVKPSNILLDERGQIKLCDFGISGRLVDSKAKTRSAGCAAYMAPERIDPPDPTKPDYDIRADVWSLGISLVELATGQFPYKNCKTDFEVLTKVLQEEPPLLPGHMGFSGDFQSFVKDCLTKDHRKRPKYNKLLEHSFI
Experimental: as §1

PAK1 = biological target: T7, PAK1 (Homo sapiens, UniProt Q13153); assay: DSF; type: binding
T7 construct: purchased in-house DSF panel (SGC Frankfurt)
T7 sequence (Q13153 249-545): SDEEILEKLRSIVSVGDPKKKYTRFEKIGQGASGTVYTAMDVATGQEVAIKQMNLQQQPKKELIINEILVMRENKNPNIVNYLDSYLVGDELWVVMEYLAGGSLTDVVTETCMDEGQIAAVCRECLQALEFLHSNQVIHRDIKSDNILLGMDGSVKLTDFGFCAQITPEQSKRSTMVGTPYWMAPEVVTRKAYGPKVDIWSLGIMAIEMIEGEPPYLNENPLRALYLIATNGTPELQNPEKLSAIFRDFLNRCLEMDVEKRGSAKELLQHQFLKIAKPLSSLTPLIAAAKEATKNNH
Experimental: as §1

SLK = biological target: T8, SLK (Homo sapiens, UniProt Q9H2G2); assay: DSF; type: binding
T8 construct: purchased in-house DSF panel (SGC Frankfurt)
Experimental: as §1

MELK = biological target: T9, MELK (Homo sapiens, UniProt Q14680); assay: DSF; type: binding
T9 construct: purchased in-house DSF panel (SGC Frankfurt)
T9 sequence (Q14680 whole entry): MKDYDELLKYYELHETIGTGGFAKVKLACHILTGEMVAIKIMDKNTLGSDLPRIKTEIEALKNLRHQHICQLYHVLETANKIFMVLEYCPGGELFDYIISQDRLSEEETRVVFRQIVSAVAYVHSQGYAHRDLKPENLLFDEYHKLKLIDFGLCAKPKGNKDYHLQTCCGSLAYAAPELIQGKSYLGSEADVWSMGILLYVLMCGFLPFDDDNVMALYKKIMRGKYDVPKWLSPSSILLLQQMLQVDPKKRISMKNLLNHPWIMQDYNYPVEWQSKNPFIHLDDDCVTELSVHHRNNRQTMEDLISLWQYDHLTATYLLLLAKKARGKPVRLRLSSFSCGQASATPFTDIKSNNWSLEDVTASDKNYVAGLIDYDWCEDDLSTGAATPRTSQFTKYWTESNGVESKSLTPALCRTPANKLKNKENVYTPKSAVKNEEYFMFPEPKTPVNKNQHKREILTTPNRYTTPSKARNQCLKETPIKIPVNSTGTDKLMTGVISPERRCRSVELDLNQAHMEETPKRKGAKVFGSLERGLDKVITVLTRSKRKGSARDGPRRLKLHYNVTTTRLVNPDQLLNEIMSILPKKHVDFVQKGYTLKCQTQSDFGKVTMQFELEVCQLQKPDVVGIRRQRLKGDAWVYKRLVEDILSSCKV
Experimental: as §1

OSR1 = biological target: T10, OSR1 (Homo sapiens, UniProt O95747); assay: DSF; type: binding
T10 construct: purchased in-house DSF panel (SGC Frankfurt)
T10 sequence (O95747 1-303): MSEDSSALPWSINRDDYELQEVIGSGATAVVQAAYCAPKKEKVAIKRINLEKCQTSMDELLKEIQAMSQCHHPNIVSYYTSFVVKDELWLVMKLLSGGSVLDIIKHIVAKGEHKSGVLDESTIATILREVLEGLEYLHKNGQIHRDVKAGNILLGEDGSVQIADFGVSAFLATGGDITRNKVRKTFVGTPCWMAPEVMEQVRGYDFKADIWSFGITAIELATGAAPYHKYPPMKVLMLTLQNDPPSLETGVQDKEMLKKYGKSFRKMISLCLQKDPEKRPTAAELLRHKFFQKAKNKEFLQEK
Experimental: as §1

CDC42BPA = biological target: T11, CDC42BPA (Homo sapiens, UniProt Q5VT25); assay: DSF; type: binding
T11 construct: purchased in-house DSF panel (SGC Frankfurt)
T11 sequence (Q5VT25 1-414): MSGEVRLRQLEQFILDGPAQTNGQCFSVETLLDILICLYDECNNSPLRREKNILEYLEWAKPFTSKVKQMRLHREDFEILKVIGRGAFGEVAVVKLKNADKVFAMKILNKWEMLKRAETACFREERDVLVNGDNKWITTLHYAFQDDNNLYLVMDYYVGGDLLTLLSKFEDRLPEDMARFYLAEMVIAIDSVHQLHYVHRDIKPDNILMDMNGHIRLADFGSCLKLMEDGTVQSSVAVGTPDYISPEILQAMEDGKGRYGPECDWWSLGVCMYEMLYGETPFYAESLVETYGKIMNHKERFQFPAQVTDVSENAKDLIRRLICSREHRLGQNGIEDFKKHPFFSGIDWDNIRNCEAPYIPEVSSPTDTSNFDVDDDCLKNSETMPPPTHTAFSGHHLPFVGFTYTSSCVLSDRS
Experimental: as §1

MERTK = biological target: T12, MERTK (Homo sapiens, UniProt Q12866); assay: DSF; type: binding
T12 construct: purchased in-house DSF panel (SGC Frankfurt)
T12 sequence (Q12866 570-864): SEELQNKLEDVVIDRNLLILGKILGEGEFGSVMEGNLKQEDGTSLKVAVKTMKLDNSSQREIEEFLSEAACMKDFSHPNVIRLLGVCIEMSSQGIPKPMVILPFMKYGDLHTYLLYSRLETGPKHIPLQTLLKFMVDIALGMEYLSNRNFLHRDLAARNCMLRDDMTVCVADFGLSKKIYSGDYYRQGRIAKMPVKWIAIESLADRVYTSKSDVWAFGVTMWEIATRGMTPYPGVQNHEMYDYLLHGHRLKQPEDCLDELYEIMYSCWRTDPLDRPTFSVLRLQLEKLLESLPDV
Experimental: as §1

[1] = Figure 7, 11-point dose-response in duplicates, read-out: NanoBRET EC50 ± SEM against CDK16

For `N#CCc1ccc(Nc2nccc(Nc3cc(C4CC4)[nH]n3)n2)cc1` [compound 1, reference compound], the “ΔTm CAMK2B” value (CAMK2B) was 4.4 °C, the “ΔTm CSNK1D” value (CSNK1D) was 3.1 °C and the EC50 (CDK16/Cyclin Y; CDK family profiling, Table S5, read-out: NanoBRET EC50 ± SEM CDK16/Cyclin Y) was 0.0146 ± 0.0055 µM. For the same molecule, the ΔTm at 10 µM (GSK3B) was 14 °C, the “ΔTm MARK4” value (MARK4) was 8.2 °C and the “ΔTm STK4” value (STK4) was 9.6 °C. The “ΔTm MAP2K7” value (MAP2K7) was 12.0 °C, the “ΔTm PAK1” value (PAK1) was 3.3 °C and the “ΔTm SLK” value (SLK) was 8.8 °C. The “ΔTm MELK” value (MELK) was 9.8 °C, the “ΔTm OSR1” value (OSR1) was 5.6 °C and the “ΔTm CDC42BPA” value (CDC42BPA) was -0.1 °C. For the same molecule, the “ΔTm MERTK” value (MERTK) was 4.4 °C.
For `CC(C)(C)OC(=O)Nc1ccc(CNc2nccc(Nc3cc(C(=O)OC(C)(C)C)[nH]n3)n2)cc1` [43d, tert-butyl 3-((2-((4-((tert-butoxycarbonyl)amino)benzyl)amino)pyrimidin-4-yl)amino)-1H-pyrazole-5-carboxylate], the “ΔTm CAMK2B” value (CAMK2B) was -0.5 °C, the “ΔTm CSNK1D” value (CSNK1D) was 1.0 °C and the EC50 (CDK16/Cyclin Y; [1]) was 0.033 µM and 0.0334 µM. The ΔTm at 10 µM (GSK3B) was 2.9 °C, the “ΔTm MARK4” value (MARK4) was -0.5 °C and the “ΔTm STK4” value (STK4) was -0.2 °C. The “ΔTm MAP2K7” value (MAP2K7) was -3.0 °C, the “ΔTm PAK1” value (PAK1) was -0.6 °C and the “ΔTm SLK” value (SLK) was 0.1 °C. For the same molecule, the “ΔTm MELK” value (MELK) was 0.2 °C, the “ΔTm OSR1” value (OSR1) was -0.4 °C and the “ΔTm CDC42BPA” value (CDC42BPA) was -0.8 °C. For the same molecule, the “ΔTm MERTK” value (MERTK) was -0.8 °C.
In the case of `CC(C)OC(=O)c1cc(Nc2ccnc(NCc3ccc(NC(=O)OC(C)(C)C)cc3)n2)n[nH]1` [42d, isopropyl 3-((2-((4-((tert-butoxycarbonyl)amino)benzyl)amino)pyrimidin-4-yl)amino)-1H-pyrazole-5-carboxylate], the “ΔTm CAMK2B” value (CAMK2B) is reported as -1.2 °C, the “ΔTm CSNK1D” value (CSNK1D) is reported as 0.8 °C and the EC50 (CDK16/Cyclin Y; [1]) is reported as 0.044 µM. The ΔTm at 10 µM (GSK3B) was 4.7 °C, the “ΔTm MARK4” value (MARK4) was 0.3 °C and the “ΔTm STK4” value (STK4) was -0.5 °C. For the same molecule, the “ΔTm MAP2K7” value (MAP2K7) was -0.3 °C, the “ΔTm PAK1” value (PAK1) was -1.1 °C and the “ΔTm SLK” value (SLK) was -0.6 °C. For the same molecule, the “ΔTm MELK” value (MELK) was -0.8 °C, the “ΔTm OSR1” value (OSR1) was -0.8 °C and the “ΔTm CDC42BPA” value (CDC42BPA) was -0.7 °C. For the same molecule, the “ΔTm MERTK” value (MERTK) was -0.8 °C.
In the case of `COC(=O)c1cc(Nc2ccnc(NCCOCCNC(=O)OC(C)(C)C)n2)[nH]n1` [21d, methyl 5-((2-((2-(2-((tert-butoxycarbonyl)amino)ethoxy)ethyl)amino)pyrimidin-4-yl)amino)-1H-pyrazole-3-carboxylate], the “ΔTm CAMK2B” value (CAMK2B) is reported as 0.2 °C, the “ΔTm CSNK1D” value (CSNK1D) is reported as 0.2 °C and the EC50 (CDK16/Cyclin Y; [1]) is reported as 1.37 ± 0.306 µM. The ΔTm at 10 µM (GSK3B) was 6.2 °C, the “ΔTm MARK4” value (MARK4) was 1.7 °C and the “ΔTm STK4” value (STK4) was 1.6 °C. The “ΔTm MAP2K7” value (MAP2K7) was 0.7 °C, the “ΔTm PAK1” value (PAK1) was 1.1 °C and the “ΔTm SLK” value (SLK) was 1.0 °C. The “ΔTm MELK” value (MELK) was 0.8 °C, the “ΔTm OSR1” value (OSR1) was 0.3 °C and the “ΔTm CDC42BPA” value (CDC42BPA) was 0.5 °C. For the same molecule, the “ΔTm MERTK” value (MERTK) was 1.9 °C.
With `CN[C@@H]1C[C@H]2O[C@@](C)([C@@H]1OC)n1c3ccccc3c3c4c(c5c6ccccc6n2c5c31)C(=O)NC4` [staurosporine, reference compound] the “ΔTm MARK4” value (MARK4) was 16.4 °C, the “ΔTm STK4” value (STK4) was 14.9 °C and the “ΔTm MAP2K7” value (MAP2K7) was 8.4 °C. The “ΔTm PAK1” value (PAK1) was 6.6 °C, the “ΔTm SLK” value (SLK) was 18.0 °C and the “ΔTm MELK” value (MELK) was 13.8 °C. The “ΔTm OSR1” value (OSR1) was 7.7 °C, the “ΔTm CDC42BPA” value (CDC42BPA) was 2.8 °C and the “ΔTm MERTK” value (MERTK) was 6.6 °C.
`COC(=O)c1cc(Nc2ccnc(NCc3ccc(NC(=O)OC(C)(C)C)cc3)n2)[nH]n1` [21i, methyl 5-((2-((4-((tert-butoxycarbonyl)amino)benzyl)amino)pyrimidin-4-yl)amino)-1H-pyrazole-3-carboxylate] was tested, and the “ΔTm CAMK2B” value (CAMK2B) was 0.6 °C, the “ΔTm CSNK1D” value (CSNK1D) was 0.4 °C and the EC50 (CDK16/Cyclin Y; [1]) was 0.38 µM. For the same molecule, the ΔTm at 10 µM (GSK3B) was 7.2 °C, the “ΔTm MARK4” value (MARK4) was 3.3 °C and the “ΔTm STK4” value (STK4) was 2.2 °C. The “ΔTm MAP2K7” value (MAP2K7) was 0.5 °C, the “ΔTm PAK1” value (PAK1) was -0.4 °C and the “ΔTm SLK” value (SLK) was 0.2 °C. For the same molecule, the “ΔTm MELK” value (MELK) was 0.9 °C, the “ΔTm OSR1” value (OSR1) was 0.6 °C and the “ΔTm CDC42BPA” value (CDC42BPA) was -0.5 °C. For the same molecule, the “ΔTm MERTK” value (MERTK) was -0.1 °C.
